The text below walks through data of paper PMC9975091 (Heliyon, 2023).

Data set [1] has as its system HCT-116. The experiment in a line: MTT cytotoxicity assay, HCT-116. Particulars: Homo sapiens. The data set is classed as cell-based.
The test system of data set [2] is MCF-7. Put plainly: MTT cytotoxicity assay, MCF-7. The conditions noted are these: Homo sapiens. The data set is classed as cell-based.
For data set [3], the system named is HepG2. The experiment in a line: MTT cytotoxicity assay, HepG2. The data set is classed as cell-based, human. A general note: Formazan colour is commonly taken as a measure of viable cells.
Data set [4] concerns WRL-68. The experiment in a line: cells. The data set is classed as cell-based. The conditions noted are these: for IC50: Homo sapiens; for toxicity against normal cell line: WRL-68, result in words.
Data set [5] deals with PC3 cells. Particulars: read-out: IC50 proliferation rate of PC3 cells; cited from earlier work.
Where [6] appears, read: HCT-116, 48 h, read-out: IC50 against HCT-116 μM 48 h.
[7] abbreviates: HCT-116, 72 h, read-out: IC50 against HCT-116 μM 72 h.
Where [8] appears, read: MCF7, 48 h, read-out: IC50 against MCF-7 μM 48 h.
Setting [9] is: MCF7, 72 h, read-out: IC50 against MCF-7 μM 72 h.
The mark [10] stands for this setting: Homo sapiens, HepG2, 48 h, read-out: IC50 against HepG2 μM 48 h, MTT, 48 h.
The mark [11] stands for this setting: Homo sapiens, HepG2, 72 h, read-out: IC50 against HepG2 μM 72 h, MTT, 72 h.
Setting [12] is: WRL68, 48 h, read-out: IC50 against WRL-68 μM 48 h.
Setting [13] is: WRL68, 72 h, read-out: IC50 against WRL-68 μM 72 h.

Read-outs that look alike come from different tables or passages of the source.

Consider `COc1ccc(-c2nc(OCc3cn(CC(=O)Nc4ccccc4)nn3)c3ccccc3n2)cc1` [Compound 8a, 2-(4-(((2-(4-methoxyphenyl)quinazolin-4-yl)oxy)methyl)-1H-1,2,3-triazol-1-yl)-N-phenylacetamide], for which the IC50 in data set [1] (setting [6]) was 10.7 µM; in data set [1] (setting [7]) it was 5.33 µM; in data set [2] (setting [8]) it was 38.1 µM; in data set [2] (setting [9]), 13 µM; in data set [3] (setting [10]), 17.5 µM; in data set [3] (setting [11]), 7.94 µM. In addition, the IC50 stood at 112 µM in data set [4] (setting [12]) and 94.1 µM in data set [4] (setting [13]). Further, in data set [4], the “toxicity against normal cell line” value is listed as “limited toxicity”.

As to `COc1ccc(-c2nc(OCc3cn(CC(=O)Nc4ccc(Cl)cc4)nn3)c3ccccc3n2)cc1` [Compound 8b, N-(4-chlorophenyl)-2-(4-(((2-(4-methoxyphenyl)quinazolin-4-yl)oxy)methyl)-1H-1,2,3-triazol-1-yl)acetamide], the IC50 in data set [1] (setting [6]) worked out at 77.1 µM; in data set [1] (setting [7]) it was 68.6 µM; in data set [2] (setting [8]), 25.9 µM; in data set [2] (setting [9]), 20.9 µM; in data set [3] (setting [10]), 78.9 µM; in data set [3] (setting [11]), 19.8 µM. For the same compound, the IC50 in data set [4] (setting [12]) was determined as 108 µM; in data set [4] (setting [13]), 89.8 µM.

For `COc1ccc(-c2nc(OCc3cn(CC(=O)Nc4ccc(Br)cc4)nn3)c3ccccc3n2)cc1` [Compound 8c, N-(4-bromophenyl)-2-(4-(((2-(4-methoxyphenyl)quinazolin-4-yl)oxy)methyl)-1H-1,2,3-triazol-1-yl)acetamide], the IC50 came to 47.8 µM in data set [1] (setting [6]); 12.2 µM in data set [1] (setting [7]); 111 µM in data set [2] (setting [8]); 62.2 µM in data set [2] (setting [9]); 30.4 µM in data set [3] (setting [10]); 13 µM in data set [3] (setting [11]). Besides, the IC50 in data set [4] (setting [12]) came to 106 µM; in data set [4] (setting [13]), 74.4 µM.

As to `COc1ccc(-c2nc(OCc3cn(CC(=O)Nc4ccc(C)cc4)nn3)c3ccccc3n2)cc1` [Compound 8d, 2-(4-(((2-(4-methoxyphenyl)quinazolin-4-yl)oxy)methyl)-1H-1,2,3-triazol-1-yl)-N-(p-tolyl)acetamide], the IC50 in data set [1] (setting [6]) stood at 30.1 µM; in data set [1] (setting [7]), 8.97 µM; in data set [2] (setting [8]), 39.9 µM; in data set [2] (setting [9]), 20 µM; in data set [3] (setting [10]), 59.2 µM; in data set [3] (setting [11]), 15 µM. The IC50 in data set [4] (setting [12]) worked out at 113 µM; in data set [4] (setting [13]), 83.5 µM.

On to `COc1ccc(-c2nc(OCc3cn(CC(=O)Nc4cccc(OC)c4)nn3)c3ccccc3n2)cc1` [Compound 8e, N-(3-methoxyphenyl)-2-(4-(((2-(4-methoxyphenyl)quinazolin-4-yl)oxy)methyl)-1H-1,2,3-triazol-1-yl)acetamide], for which the IC50 in data set [1] (setting [6]) was determined as 160 µM; in data set [1] (setting [7]), 90.6 µM; in data set [2] (setting [8]), 35.2 µM; in data set [2] (setting [9]), 23 µM; in data set [3] (setting [10]), 46 µM; in data set [3] (setting [11]), 10.2 µM. Besides, in data set [4] (setting [12]), the IC50 came out at 112 µM.

As for `COc1ccc(-c2nc(OCc3cn(CC(=O)Nc4ccc([N+](=O)[O-])cc4C)nn3)c3ccccc3n2)cc1` [Compound 8f, 2-(4-(((2-(4-methoxyphenyl)quinazolin-4-yl)oxy)methyl)-1H-1,2,3-triazol-1-yl)-N-(2-methyl-4-nitrophenyl)acetamide], the IC50 came to 36.2 µM in data set [1] (setting [6]); 23.9 µM in data set [1] (setting [7]); 21.3 µM in data set [2] (setting [8]); 18 µM in data set [2] (setting [9]); 26.1 µM in data set [3] (setting [10]); 9.15 µM in data set [3] (setting [11]). The results for the IC50 in data set [4] (setting [12]) and in data set [4] (setting [13]) were 100 µM and 90.3 µM, respectively. In addition, in data set [4], the “toxicity against normal cell line” value was “limited toxicity”.

As for `O=C(Cn1cc(COc2nc(-c3ccc(Cl)cc3)nc3ccccc23)nn1)Nc1ccccc1` [Compound 8g, 2-(4-(((2-(4-chlorophenyl)quinazolin-4-yl)oxy)methyl)-1H-1,2,3-triazol-1-yl)-N-phenylacetamide], the IC50 in data set [1] (setting [6]) was 49.2 µM; in data set [1] (setting [7]), 24.5 µM; in data set [2] (setting [8]), 67.2 µM; in data set [2] (setting [9]) it was 20.9 µM; in data set [3] (setting [10]), 38.8 µM; in data set [3] (setting [11]), 13.2 µM. Also, the IC50 in data set [4] (setting [12]) is 103 µM; in data set [4] (setting [13]), 85.1 µM.

As to `O=C(Cn1cc(COc2nc(-c3ccc(Cl)cc3)nc3ccccc23)nn1)Nc1ccc(Br)cc1` [Compound 8h, N-(4-bromophenyl)-2-(4-(((2-(4-chlorophenyl)quinazolin-4-yl)oxy)methyl)-1H-1,2,3-triazol-1-yl)acetamide], the IC50 in data set [1] (setting [6]) turned out to be 42.3 µM; in data set [1] (setting [7]), 41.8 µM; in data set [2] (setting [8]), 34.1 µM; in data set [2] (setting [9]) it was 20.6 µM; in data set [3] (setting [10]), 90.5 µM; in data set [3] (setting [11]), 8.55 µM. The IC50 was found to be 115 µM in data set [4] (setting [12]) and 89.5 µM in data set [4] (setting [13]).

Turning to `Cc1ccc(NC(=O)Cn2cc(COc3nc(-c4ccc(Cl)cc4)nc4ccccc34)nn2)cc1` [Compound 8i, 2-(4-(((2-(4-chlorophenyl)quinazolin-4-yl)oxy)methyl)-1H-1,2,3-triazol-1-yl)-N-(p-tolyl)acetamide], the IC50 is 48.1 µM in data set [1] (setting [6]); 24.2 µM in data set [1] (setting [7]); 221 µM in data set [2] (setting [8]); 97 µM in data set [2] (setting [9]); 55.1 µM in data set [3] (setting [10]); 10.9 µM in data set [3] (setting [11]). The IC50 in data set [4] (setting [12]) amounted to 117 µM; in data set [4] (setting [13]), 86.4 µM.

Regarding `O=C(Cn1cc(COc2nc(-c3ccc(Cl)cc3)nc3ccccc23)nn1)Nc1cccc(Br)c1` [Compound 8j, N-(3-bromophenyl)-2-(4-(((2-(4-chlorophenyl)quinazolin-4-yl)oxy)methyl)-1H-1,2,3-triazol-1-yl)acetamide], the IC50 in data set [1] (setting [6]) stood at 176 µM; in data set [1] (setting [7]) it was 54.2 µM; in data set [2] (setting [8]), 164 µM; in data set [2] (setting [9]) it was 55.8 µM; in data set [3] (setting [10]) it was 55.8 µM; in data set [3] (setting [11]) it was 8.55 µM. The IC50 in data set [3] (read-out: IC50 against HepG2 μM 72 h, MTT, 72 h) was 12.7 µM; in data set [4] (setting [12]) it was 110 µM; in data set [4] (setting [13]) it was 78.6 µM.

Turning to `COc1cc(-c2nc(OCc3cn(CC(=O)Nc4ccccc4)nn3)c3ccccc3n2)cc(OC)c1OC` [Compound 8k, N-phenyl-2-(4-(((2-(3,4,5-trimethoxyphenyl)quinazolin-4-yl)oxy)methyl)-1H-1,2,3-triazol-1-yl)acetamide], the IC50 in data set [1] (setting [6]) was 69 µM; in data set [1] (setting [7]), 41.1 µM; in data set [2] (setting [8]) it was 24.2 µM; in data set [2] (setting [9]) it was 11.3 µM; in data set [3] (setting [10]), 72.4 µM; in data set [3] (setting [11]) it was 16.2 µM. Also, the IC50 in data set [4] (setting [12]) was 117 µM; in data set [4] (setting [13]), 84.4 µM.

For `COc1cc(-c2nc(OCc3cn(CC(=O)Nc4ccc(C)cc4)nn3)c3ccccc3n2)cc(OC)c1OC` [Compound 8l, N-(p-tolyl)-2-(4-(((2-(3,4,5-trimethoxyphenyl)quinazolin-4-yl)oxy)methyl)-1H-1,2,3-triazol-1-yl)acetamide], the IC50 in data set [1] (setting [6]) is 64.3 µM; in data set [1] (setting [7]), 29.4 µM; in data set [2] (setting [8]) it was 28.8 µM; in data set [2] (setting [9]), 26.5 µM; in data set [3] (setting [10]), 41.4 µM; in data set [4] (setting [12]) it was 101 µM. Moreover, the IC50 in data set [4] (setting [13]) is 71.3 µM.

With `COc1cccc2c1C(=O)c1c(O)c3c(c(O)c1C2=O)C[C@@](O)(C(=O)CO)C[C@@H]3O[C@H]1C[C@H](N)[C@H](O)[C@H](C)O1` [Doxorubicin, reference compound], the IC50 in data set [1] (setting [7]) amounted to 1.21 µM; in data set [3] (setting [10]), 1.96 µM; in data set [3] (setting [11]), 1.31 µM; in data set [4] (setting [12]), 2.19 µM; in data set [4] (setting [13]), 1.73 µM.

As for `CNC(=O)c1cc(Oc2ccc(NC(=O)Nc3ccc(Cl)c(C(F)(F)F)c3)cc2)ccn1` [sorafenib], in data set [5], the IC50 is 17.3 µM.
